Source: US20240150366A1, “4-AMINOQUINAZOLINE COMPOUND” (Astellas Pharma Inc., priority 2021, published 2024)
Where two headings read alike, the source gives them in different places.

Columns and labels:
[1] = molecular target: KRAS G12D/SOS/c-Raf complex (Homo sapiens (Human), UniProt P01116, G12D); assay: KRAS G12D/SOS/c-Raf complex formation inhibitory activity (TR-FRET); assay type: biochemical; details: human recombinant proteins, 1 hour at room temperature, read-out: IC50, KRAS G12D/SOS/c-Raf complex formation inhibition
Method: Using human recombinant KRAS G12D, SOS and c-Raf proteins, the inhibitory activity of subject compounds on the complex formation of the proteins was examined by a time-resolved fluorescence resonance energy transfer (TR-FRET) method.
Biotinylated AviTag-KRAS G12D (amino acid region of 1-185, GDP) (2.5 μL; 400 nM) and subject compounds dissolved in an assay buffer (50 mM HEPES, 150 mM NaCl, 5 mM MgCl2, 0.05% Tween 20, pH 7.0) were added to a 384-well plate (from Corning) in a liquid volume of 2.5 μL at 40,000 nM to 40 nM. Son of Sevenless (SOS) (amino acid region of 564-1049, 2.5 μL; 1.3 μM) and c-Raf (amino acid region of 51-131) GST (2.5 μL; 130 nM) containing GTP (from Sigma-Aldrich; 2 μM) were added to the plate, and the plate was allowed to stand for 1 hour at room temperature. Then, a mixture liquid (10 μL) of LANCE Ulight-anti-GST (from PerkinElmer; 120 nM) and LANCE Eu-W1024 labeled Streptoavidin (from PerkinElmer; 100 ng/mL) was added, and the 620-nm and 665-nm fluorescence intensities were measured using EnVision 2104 (from PerkinElmer) under the conditions of an excitation wavelength of 337 nm. After standardizing the values with the fluorescence intensity at a reference wavelength of 620 nm, the 50% inhibitory concentrations (IC50) were calculated by Sigmoid-Emax model nonlinear regression analysis with the signaling value in treatment with the solvent taken as 0% inhibition and with the signaling value without the addition of GTP taken as 100% inhibition.

[2] = test system: ERK phosphorylation (Thr202/Tyr204) in KRAS G12D mutant-positive pancreatic cancer line AsPC-1; assay: ERK phosphorylation inhibitory activity in AsPC-1 (cell ELISA); assay type: cell-based; details: Homo sapiens, ASPC1, 2 h, read-out: IC50, ERK phosphorylation inhibition
Method: The ERK phosphorylation inhibitory activities of subject compounds were evaluated by measuring phosphorylation of the 202th threonine (Thr202) and the 204th tyrosine (Tyr204) of ERK located downstream of the KRAS signal by cell ELISA.
AsPC-1 cells (ATCC, CRL-1682) were seeded at 36 μL/well on a 384-well plate (from Greiner bio-one) to give 2.0×10^4 cells per well. As for the cell culture conditions, RPMI-1640 medium (from Sigma-Aldrich) containing 10% fetal bovine serum (from GE Life Sciences) was used in the presence of 5% CO2 at 37° C.
The next day, the subject compounds (6 points having final concentrations in the range of 10 μM to 0.3 nM), trametinib (MEK inhibitor) of a final concentration of 1 μM as a positive control and DMSO, which was the solvent for the subject compounds, as a negative control were diluted 100-fold with a fresh medium and were each added at 4 μL per well, followed by culturing for 2 hours. After culturing, a 30% glyoxal solution (40% glyoxal [from Wako] was diluted with Phosphate Buffered Saline [PBS; from Wako) was quickly added at 30 μL per well, and the plate was allowed to stand for an hour at room temperature to thus immobilize the cells. Then, the plate was centrifuged (110× g, seven seconds, hereinafter centrifugation was performed under the same conditions unless otherwise specified) to remove the supernatant, and 0.1% Triton X-100 (from Amersham Biosciences)—containing PBS was added at 20 μL per well. After allowing the plate to stand for 10 minutes at room temperature, the supernatant was removed by centrifugation, and the same operation was further repeated. Next, 0.5% sodium dodecyl sulfate (SDS; from Invitrogen)-containing PBS was added at 20 μL per well. The plate was allowed to stand at room temperature for 30 minutes and was then centrifuged to remove the supernatant. Subsequently, a blocking solution (Intercept Blocking Buffer; from LI-COR Biosciences) was added at 20 μL per well, and the plate was allowed to stand for an hour at room temperature. The supernatant was removed by centrifugation, and an ERK (Thr202/Tyr204) phosphorylation antibody (Phospho-p44/42 MAPK (Erk 1/2) (Thr202/Tyr204) (D13.14.4E) XP Rabbit mAb; from Cell Signaling Technology) diluted 2,500-fold with the blocking solution was added at 10 μL per well as a primary antibody. The plate was allowed to stand at 4° C. overnight.
The next day, the plate was centrifuged to remove the supernatant, and 0.05% Tween-20-containing PBS (from Thermo Scientific; 20× PBS Tween-20 was diluted 20-fold with ion exchange water and used) was added at 20 μL per well. The supernatant was removed by centrifugation to thus wash each well. The washing was performed three times in total. After washing, an IRDye 800CW Goat anti-Rabbit IgG (from LI-COR Biosciences) diluted 1,000-fold with the blocking solution was added at 10 μL per well as a secondary antibody, and the plate was allowed to stand for an hour at room temperature. The plate was centrifuged to remove the supernatant, and each well was washed three times with 0.05% Tween-20-containing PBS in the same manner as after the primary antibody reaction. Centrifugation after the third washing was performed at 171×g for 17 seconds. After removing the supernatant, the plate was dried as it was with air at room temperature for three hours or more, and the 800-nm fluorescent signals were measured with Aerius (from LI-COR Biosciences).
With the signaling value at the time of addition of DMSO taken as 0% inhibition and with the signaling value at the time of addition of […] trametinib taken as 100% inhibition, the 50% inhibition values (IC50) were calculated by Sigmoid-Emax model nonlinear regression analysis.

[3] = test system: KRAS G12D mutant-positive pancreatic cancer line AsPC-1; assay: Non-anchorage-dependent cell growth inhibitory activity in AsPC-1 (spheroid 3D culture); assay type: cell-based; details: Homo sapiens, ASPC1, 144 h, read-out: IC50, non-anchorage-dependent cell growth inhibition
Method: The non-anchorage-dependent cell growth inhibitory activities of subject compounds were evaluated by spheroid 3D cell culture.
AsPC-1 cells were seeded at 36 μL/well on a low-cell-adhesive round bottom 384-well plate (Prime Surface: from Sumitomo Bakelite) to give 5×10^2 cells per well. The cell culture was performed under the same conditions as in the Test Example 2.
The next day, the subject compounds (6 points having final concentrations in the range of 10 μM to 3.0 nM) and DMSO, which was the solvent for the subject compounds, as a negative control were diluted 100-fold with a fresh medium and were each added at 4 μL per well. After culturing in the presence of 5% CO2 at 37° C. for six days, CellTiter Glo 2.0 (from Promega) was added at 20 μL per well. After stirring with a plate mixer (from FINEPCR) at normal temperature for an hour, the luminescent signals were measured with ARVO X3 (from PerkinElmer).
With the signaling value in treatment with DMSO taken as 0% inhibition and with the signaling value in the medium alone without cells taken as 100% inhibition, the 50% inhibition values (IC50) were calculated by Sigmoid-Emax model nonlinear regression analysis.

[4] = AsPC-1 spheroid 3D culture, six days, CellTiter Glo 2.0

KRAS G12D/SOS/c-Raf complex, sequence (P01116 other isoform, or with tags, fused parts or gaps G12D): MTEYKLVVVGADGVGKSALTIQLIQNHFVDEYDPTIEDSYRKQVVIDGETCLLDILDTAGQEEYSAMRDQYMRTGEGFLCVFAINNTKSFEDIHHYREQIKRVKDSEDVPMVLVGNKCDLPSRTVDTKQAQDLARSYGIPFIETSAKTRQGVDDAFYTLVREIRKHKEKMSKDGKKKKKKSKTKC

| Compound | IC50 [1] | IC50 [2] | IC50 [3] | IC50 [3, 4] |
| --- | --- | --- | --- | --- |
| Cc1c(F)cc2[nH]ncc2c1-c1c(C2CC2)cc2c(N3C[C@@H]4C[C@H]3CN4)nc(OC3CCOCC3)nc2c1OCc1ccc(Cn2nc(-c3cnccn3)nc2C)cc1 [Example 11, 6-cyclopropyl-4-[(1S,4S)-2,5-diazabicyclo[2.2.1]heptan-2-yl]-7-(6-fluoro-5-methyl-1H-indazol-4-yl)-8-[(4-{[5-methyl-3-(pyrazin-2-yl)-1H-1,2,4-triazol-1-yl]methyl}phenyl)methoxy]-2-[(oxan-4-yl)oxy]quinazoline] | 110 nM | 81 nM | 133 nM |  |
| Cc1c(F)cc2[nH]ncc2c1-c1c(C2CC2)cc2c(N3C[C@@H]4C[C@H]3CN4)nc(OC3CCOCC3)nc2c1OCc1ccc(Cc2nnn(C)n2)cc1 [Example 16, 6-cyclopropyl-4-[(1S,4S)-2,5-diazabicyclo[2.2.1]heptan-2-yl]-7-(6-fluoro-5-methyl-1H-indazol-4-yl)-8-({4-[(2-methyl-2H-tetrazol-5-yl)methyl]phenyl}methoxy)-2-[(oxan-4-yl)oxy]quinazoline] | 226 nM | 93 nM | 216 nM |  |
| Cc1c(F)cc2[nH]ncc2c1-c1c(C2CC2)cc2c(N3C[C@@H]4C[C@H]3CN4)nc(OC3CCOCC3)nc2c1OCc1ccc(Cc2nc(C3CC3)n(C)n2)cc1 [Example 22, 6-cyclopropyl-8-({4-[(5-cyclopropyl-1-methyl-1H-1,2,4-triazol-3-yl)methyl]phenyl}methoxy)-4-[(1 S,4S)-2,5-diazabicyclo[2.2.1]heptan-2-yl]-7-(6-fluoro-5-methyl-1H-indazol-4-yl)-2-[(oxan-4-yl)oxy]quinazoline] | 161 nM |  |  | 209 nM |
| Cc1c(F)cc2[nH]ncc2c1-c1c(C2CC2)cc2c(N3C[C@@H]4C[C@H]3CN4)nc(OC3CCOCC3)nc2c1OCc1ccc(Cc2nc3n(n2)CCC3)cc1 [Example 18, 6-cyclopropyl-4-[(1S,4S)-2,5-diazabicyclo[2.2.1]heptan-2-yl]-8-({4-[(6,7-dihydro-5H-pyrrolo[1,2-b][1,2,4]triazol-2-yl)methyl]phenyl}methoxy)-7-(6-fluoro-5-methyl-1H-indazol-4-yl)-2-[(oxan-4-yl)oxy]quinazoline] | 92 nM |  | 192 nM |  |
| Cc1c(F)cc2[nH]ncc2c1-c1c(C2CC2)cc2c(N3C[C@@H]4C[C@H]3CN4)nc(OC3CCOCC3)nc2c1OCc1ccc(CN2C(=O)CN(C)c3ncccc32)cc1 [Example 23, 1-({4-[({6-cyclopropyl-4-[(1S,4S)-2,5-diazabicyclo[2.2.1]heptan-2-yl]-7-(6-fluoro-5-methyl-1H-indazol-4-yl)-2-[(oxan-4-yl)oxy]quinazolin-8-yl}oxy)methyl]phenyl}methyl)-4-methyl-3,4-dihydropyrido[2,3-b]pyrazin-2(1H)-one] | 68 nM |  |  |  |
| Cc1c(F)cc2[nH]ncc2c1-c1c(C2CC2)cc2c(N3C[C@@H]4C[C@H]3CN4)nc(OC3CCOCC3)nc2c1OCc1ccc(CN2CCN(CC3CC3)CC2=O)cc1 [Example 7, 1-({4-[({6-cyclopropyl-4-[(1S,4S)-2,5-diazabicyclo[2.2.1]heptan-2-yl]-7-(6-fluoro-5-methyl-1H-indazol-4-yl)-2-[(oxan-4-yl)oxy]quinazolin-8-yl}oxy)methyl]phenyl}methyl)-4-(cyclopropylmethyl)piperazin-2-one] | 105 nM |  | 80 nM |  |
| Cc1c(F)cc2[nH]ncc2c1-c1c(C2CC2)cc2c(N3C[C@@H]4C[C@H]3CN4)nc(OC3CCOCC3)nc2c1OCc1ccc(Cc2cn3ccncc3n2)cc1 [Example 20, 6-cyclopropyl-4-[(1S,4S)-2,5-diazabicyclo[2.2.1]heptan-2-yl]-7-(6-fluoro-5-methyl-1H-indazol-4-yl)-8-({4-[(imidazo[1,2-a]pyrazin-2-yl)methyl]phenyl}methoxy)-2-[(oxan-4-yl)oxy]quinazoline] | 70 nM |  | 138 nM |  |
| Cc1c(F)cc2[nH]ncc2c1-c1c(C2CC2)cc2c(N3C[C@@H]4C[C@H]3CN4)nc(OC3CCOCC3)nc2c1OCc1ccc(Cc2ncn(C3CCOCC3)n2)cc1 [Example 19, 6-cyclopropyl-4-[(1S,4S)-2,5-diazabicyclo[2.2.1]heptan-2-yl]-7-(6-fluoro-5-methyl-1H-indazol-4-yl)-2-[(oxan-4-yl)oxy]-8-[(4-{[1-(oxan-4-yl)-1H-1,2,4-triazol-3-yl]methyl}phenyl)methoxy]quinazoline] | 65 nM |  | 189 nM |  |
| CCc1nc(Cc2ccc(COc3c(-c4c(C)c(F)cc5[nH]ncc45)c(C4CC4)cc4c(N5C[C@@H]6C[C@H]5CN6)nc(OC5CCOCC5)nc34)cc2)nn1C [Example 15, 6-cyclopropyl-4-[(1S,4S)-2,5-diazabicyclo[2.2.1]heptan-2-yl]-8-({4-[(5-ethyl-1-methyl-1H-1,2,4-triazol-3-yl)methyl]phenyl}methoxy)-7-(6-fluoro-5-methyl-1H-indazol-4-yl)-2-[(oxan-4-yl)oxy]quinazoline] | 88 nM |  | 152 nM |  |
| Cc1c(F)cc2[nH]ncc2c1-c1c(C2CC2)cc2c(N3C[C@@H]4C[C@H]3CN4)nc(OC3CCOCC3)nc2c1OCc1ccc(Cn2c(=O)n(C)c3nccnc32)cc1 (single isomer, unassigned) [Example 1] | 44 nM |  |  | 68 nM |
